Assay [1] deals with Casein kinase I isoform gamma-1 (Homo sapiens) (UniProt Q9HCP0). Nature of the assay: Inhibition of CK1gamma1 (unknown origin) at 10 uM after 120 mins P33 radiolabeled kinase activity assay.
The target in assay [2] is T1, Activin receptor type-1 (Homo sapiens) (UniProt Q04771).
T1 sequence (whole entry): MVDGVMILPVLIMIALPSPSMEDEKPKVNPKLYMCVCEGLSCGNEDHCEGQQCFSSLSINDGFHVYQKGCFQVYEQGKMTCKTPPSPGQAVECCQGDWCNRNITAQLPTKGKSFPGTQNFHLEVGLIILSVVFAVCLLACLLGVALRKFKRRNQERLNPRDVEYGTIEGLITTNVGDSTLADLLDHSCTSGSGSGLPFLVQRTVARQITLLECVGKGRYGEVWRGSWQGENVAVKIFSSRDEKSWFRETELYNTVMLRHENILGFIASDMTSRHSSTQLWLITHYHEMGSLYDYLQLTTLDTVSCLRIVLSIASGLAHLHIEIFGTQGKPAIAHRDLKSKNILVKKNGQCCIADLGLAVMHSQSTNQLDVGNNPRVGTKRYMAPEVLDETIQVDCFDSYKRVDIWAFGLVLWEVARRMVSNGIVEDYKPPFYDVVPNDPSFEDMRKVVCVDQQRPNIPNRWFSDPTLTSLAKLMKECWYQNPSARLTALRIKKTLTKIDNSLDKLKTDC
Nature of the assay: Inhibition of ALK2 (unknown origin) at 10 uM after 120 mins P33 radiolabeled kinase activity assay.

The target in assay [3] is T2, Serine/threonine-protein kinase BRSK1 (Homo sapiens) (UniProt Q8TDC3).
T2 sequence (whole entry): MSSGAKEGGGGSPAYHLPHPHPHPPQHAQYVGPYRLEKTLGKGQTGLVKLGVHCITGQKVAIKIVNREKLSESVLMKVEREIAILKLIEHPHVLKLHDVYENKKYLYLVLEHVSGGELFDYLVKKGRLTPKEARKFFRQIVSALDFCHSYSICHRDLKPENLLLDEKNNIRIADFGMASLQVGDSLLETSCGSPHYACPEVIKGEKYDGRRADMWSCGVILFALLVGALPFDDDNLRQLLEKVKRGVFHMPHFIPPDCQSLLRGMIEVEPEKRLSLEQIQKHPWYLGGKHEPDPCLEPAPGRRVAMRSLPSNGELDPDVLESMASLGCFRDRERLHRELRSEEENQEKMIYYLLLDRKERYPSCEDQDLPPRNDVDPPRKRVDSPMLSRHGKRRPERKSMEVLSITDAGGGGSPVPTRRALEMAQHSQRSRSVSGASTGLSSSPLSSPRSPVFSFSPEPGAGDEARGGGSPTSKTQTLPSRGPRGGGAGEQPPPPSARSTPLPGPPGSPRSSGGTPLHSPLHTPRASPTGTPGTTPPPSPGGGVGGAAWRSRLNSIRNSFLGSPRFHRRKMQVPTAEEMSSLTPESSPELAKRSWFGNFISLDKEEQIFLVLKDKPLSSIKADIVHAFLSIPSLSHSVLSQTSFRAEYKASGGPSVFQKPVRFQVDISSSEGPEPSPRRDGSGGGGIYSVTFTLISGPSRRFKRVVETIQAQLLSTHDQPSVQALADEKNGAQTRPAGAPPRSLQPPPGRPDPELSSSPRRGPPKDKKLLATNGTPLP
Put plainly: Inhibition of BRSK1 (unknown origin) at 10 uM after 120 mins P33 radiolabeled kinase activity assay.

Assay [4] concerns the target MAP/microtubule affinity-regulating kinase 3 (Homo sapiens) (UniProt P27448). Put plainly: Inhibition of MARK3 (unknown origin) at 10 uM after 120 mins P33 radiolabeled kinase activity assay.
Assay [5] has as its target Leukocyte tyrosine kinase receptor (Homo sapiens) (UniProt P29376). Put plainly: Inhibition of TYK1 (unknown origin) at 10 uM after 120 mins P33 radiolabeled kinase activity assay.
The target in assay [6] is Tyrosine-protein kinase receptor UFO (Homo sapiens) (UniProt P30530). Nature of the assay: Inhibition of AXL (unknown origin) at 10 uM after 120 mins P33 radiolabeled kinase activity assay.
In assay [7] the target is T3, Rhodopsin kinase GRK1 (Homo sapiens) (UniProt Q15835).
T3 sequence (whole entry): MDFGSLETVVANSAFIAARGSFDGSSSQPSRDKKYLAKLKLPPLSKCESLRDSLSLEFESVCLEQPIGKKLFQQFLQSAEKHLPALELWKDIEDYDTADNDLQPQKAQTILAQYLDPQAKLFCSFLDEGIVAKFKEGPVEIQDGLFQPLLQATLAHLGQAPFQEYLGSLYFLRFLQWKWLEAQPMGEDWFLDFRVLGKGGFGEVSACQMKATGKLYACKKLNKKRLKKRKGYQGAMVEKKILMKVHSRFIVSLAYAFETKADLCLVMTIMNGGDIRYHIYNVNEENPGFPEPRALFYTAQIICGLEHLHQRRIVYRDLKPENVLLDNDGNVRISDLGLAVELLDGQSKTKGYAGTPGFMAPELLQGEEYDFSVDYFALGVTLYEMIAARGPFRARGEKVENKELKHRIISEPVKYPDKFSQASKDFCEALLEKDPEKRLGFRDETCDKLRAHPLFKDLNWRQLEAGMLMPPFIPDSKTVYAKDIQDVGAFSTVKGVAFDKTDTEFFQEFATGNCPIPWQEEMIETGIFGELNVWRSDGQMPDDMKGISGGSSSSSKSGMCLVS
Put plainly: Inhibition of GRK1 (unknown origin) at 10 uM after 120 mins P33 radiolabeled kinase activity assay.

Assay [8] deals with Serine/threonine-protein kinase NIM1 (Homo sapiens) (UniProt Q8IY84). Nature of the assay: Inhibition of NIM1 (unknown origin) at 10 uM after 120 mins P33 radiolabeled kinase activity assay.
Assay [9] addresses Focal adhesion kinase 1 (Homo sapiens) (UniProt Q05397). Put plainly: Inhibition of FAK (unknown origin) at 10 uM after 120 mins P33 radiolabeled kinase activity assay.
In assay [10] the target is T4, Serine/threonine-protein kinase Nek2 (Homo sapiens) (UniProt P51955).
T4 sequence (whole entry): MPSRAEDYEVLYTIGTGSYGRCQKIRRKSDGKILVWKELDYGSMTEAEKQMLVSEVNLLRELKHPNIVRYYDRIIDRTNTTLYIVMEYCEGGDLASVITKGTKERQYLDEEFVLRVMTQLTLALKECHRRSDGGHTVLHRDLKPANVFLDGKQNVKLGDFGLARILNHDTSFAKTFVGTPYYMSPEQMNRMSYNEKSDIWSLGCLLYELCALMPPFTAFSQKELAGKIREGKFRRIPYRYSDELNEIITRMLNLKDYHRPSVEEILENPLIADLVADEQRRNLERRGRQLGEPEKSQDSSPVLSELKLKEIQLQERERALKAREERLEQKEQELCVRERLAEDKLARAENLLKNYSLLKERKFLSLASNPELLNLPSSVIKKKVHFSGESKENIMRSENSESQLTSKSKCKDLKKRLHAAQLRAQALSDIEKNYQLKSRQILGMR
Put plainly: Inhibition of NEK2 (unknown origin) at 10 uM after 120 mins P33 radiolabeled kinase activity assay.

The target in assay [11] is Platelet-derived growth factor receptor alpha (Homo sapiens) (UniProt P16234). Nature of the assay: Inhibition of PDGFRalpha (unknown origin) at 10 uM after 120 mins P33 radiolabeled kinase activity assay.
Sequence of Platelet-derived growth factor receptor alpha (Homo sapiens) (P16234 whole entry): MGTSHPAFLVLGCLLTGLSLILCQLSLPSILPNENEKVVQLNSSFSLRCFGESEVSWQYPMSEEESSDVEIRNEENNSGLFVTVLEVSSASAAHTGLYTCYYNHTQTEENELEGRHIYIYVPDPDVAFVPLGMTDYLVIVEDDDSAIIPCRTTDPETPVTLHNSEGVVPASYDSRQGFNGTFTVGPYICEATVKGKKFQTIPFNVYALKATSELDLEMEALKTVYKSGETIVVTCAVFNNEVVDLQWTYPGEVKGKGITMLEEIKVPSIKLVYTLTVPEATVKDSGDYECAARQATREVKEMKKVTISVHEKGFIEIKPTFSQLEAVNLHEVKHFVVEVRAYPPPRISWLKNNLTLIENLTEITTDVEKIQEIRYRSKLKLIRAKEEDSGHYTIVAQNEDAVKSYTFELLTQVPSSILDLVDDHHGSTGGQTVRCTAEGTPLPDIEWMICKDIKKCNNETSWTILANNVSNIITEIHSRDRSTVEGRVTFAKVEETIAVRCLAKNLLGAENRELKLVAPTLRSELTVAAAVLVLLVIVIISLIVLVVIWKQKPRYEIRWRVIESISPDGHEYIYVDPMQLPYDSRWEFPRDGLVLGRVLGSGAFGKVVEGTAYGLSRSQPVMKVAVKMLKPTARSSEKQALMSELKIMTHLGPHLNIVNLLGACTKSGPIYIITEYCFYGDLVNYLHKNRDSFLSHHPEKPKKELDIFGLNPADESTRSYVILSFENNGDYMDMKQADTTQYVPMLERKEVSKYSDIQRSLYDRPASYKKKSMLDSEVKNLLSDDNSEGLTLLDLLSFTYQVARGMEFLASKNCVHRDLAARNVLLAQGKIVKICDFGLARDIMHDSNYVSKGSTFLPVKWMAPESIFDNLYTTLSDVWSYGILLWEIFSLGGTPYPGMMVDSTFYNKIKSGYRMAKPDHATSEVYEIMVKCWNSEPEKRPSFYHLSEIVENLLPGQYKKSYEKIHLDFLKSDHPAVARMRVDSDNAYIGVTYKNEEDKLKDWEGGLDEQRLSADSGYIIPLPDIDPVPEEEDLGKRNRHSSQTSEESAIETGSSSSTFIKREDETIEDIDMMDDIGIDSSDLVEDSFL

Sequence of Tyrosine-protein kinase receptor UFO (Homo sapiens) (P30530 whole entry): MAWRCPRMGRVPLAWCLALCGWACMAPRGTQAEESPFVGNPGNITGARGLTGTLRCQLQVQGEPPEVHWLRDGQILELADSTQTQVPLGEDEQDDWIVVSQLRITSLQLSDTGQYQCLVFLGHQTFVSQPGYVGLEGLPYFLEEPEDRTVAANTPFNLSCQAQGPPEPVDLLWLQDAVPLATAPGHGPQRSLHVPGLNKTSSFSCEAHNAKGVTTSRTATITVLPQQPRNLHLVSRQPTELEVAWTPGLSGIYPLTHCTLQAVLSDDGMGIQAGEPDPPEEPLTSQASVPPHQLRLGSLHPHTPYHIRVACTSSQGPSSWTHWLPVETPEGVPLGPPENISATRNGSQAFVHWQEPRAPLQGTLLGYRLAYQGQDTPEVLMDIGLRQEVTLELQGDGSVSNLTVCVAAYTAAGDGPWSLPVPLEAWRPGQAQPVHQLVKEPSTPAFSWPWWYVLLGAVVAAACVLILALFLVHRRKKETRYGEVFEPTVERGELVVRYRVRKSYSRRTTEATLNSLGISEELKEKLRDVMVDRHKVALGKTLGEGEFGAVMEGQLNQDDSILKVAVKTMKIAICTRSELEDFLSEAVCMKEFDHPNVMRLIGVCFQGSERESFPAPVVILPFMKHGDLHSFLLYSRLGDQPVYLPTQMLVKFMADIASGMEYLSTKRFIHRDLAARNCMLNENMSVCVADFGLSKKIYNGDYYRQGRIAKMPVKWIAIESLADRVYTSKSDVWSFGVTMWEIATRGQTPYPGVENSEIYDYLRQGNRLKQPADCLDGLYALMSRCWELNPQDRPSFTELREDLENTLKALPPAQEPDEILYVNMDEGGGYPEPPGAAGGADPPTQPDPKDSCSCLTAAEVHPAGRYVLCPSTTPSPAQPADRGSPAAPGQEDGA
Sequence of Leukocyte tyrosine kinase receptor (Homo sapiens) (P29376 whole entry): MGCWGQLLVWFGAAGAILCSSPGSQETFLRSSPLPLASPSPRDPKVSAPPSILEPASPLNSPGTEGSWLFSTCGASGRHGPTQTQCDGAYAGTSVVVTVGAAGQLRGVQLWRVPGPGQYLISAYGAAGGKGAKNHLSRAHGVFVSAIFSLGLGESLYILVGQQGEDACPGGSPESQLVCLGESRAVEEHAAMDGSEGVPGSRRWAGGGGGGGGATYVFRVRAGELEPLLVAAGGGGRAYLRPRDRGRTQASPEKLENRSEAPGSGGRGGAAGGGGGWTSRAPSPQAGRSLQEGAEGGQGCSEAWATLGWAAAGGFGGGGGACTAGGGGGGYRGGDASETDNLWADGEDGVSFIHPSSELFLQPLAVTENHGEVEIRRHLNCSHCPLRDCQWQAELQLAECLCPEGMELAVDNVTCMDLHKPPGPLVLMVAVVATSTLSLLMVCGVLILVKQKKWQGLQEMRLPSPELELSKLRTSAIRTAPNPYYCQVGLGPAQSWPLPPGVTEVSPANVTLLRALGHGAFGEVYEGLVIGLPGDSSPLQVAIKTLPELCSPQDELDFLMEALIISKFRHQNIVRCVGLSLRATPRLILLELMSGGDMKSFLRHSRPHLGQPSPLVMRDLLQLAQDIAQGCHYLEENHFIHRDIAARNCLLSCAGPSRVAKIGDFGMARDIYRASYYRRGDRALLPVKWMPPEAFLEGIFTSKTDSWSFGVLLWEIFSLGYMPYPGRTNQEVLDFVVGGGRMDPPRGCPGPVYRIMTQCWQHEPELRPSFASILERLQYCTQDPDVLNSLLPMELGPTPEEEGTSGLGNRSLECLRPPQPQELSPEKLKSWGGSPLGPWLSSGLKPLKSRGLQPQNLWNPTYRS
Sequence of Serine/threonine-protein kinase NIM1 (Homo sapiens) (Q8IY84 whole entry): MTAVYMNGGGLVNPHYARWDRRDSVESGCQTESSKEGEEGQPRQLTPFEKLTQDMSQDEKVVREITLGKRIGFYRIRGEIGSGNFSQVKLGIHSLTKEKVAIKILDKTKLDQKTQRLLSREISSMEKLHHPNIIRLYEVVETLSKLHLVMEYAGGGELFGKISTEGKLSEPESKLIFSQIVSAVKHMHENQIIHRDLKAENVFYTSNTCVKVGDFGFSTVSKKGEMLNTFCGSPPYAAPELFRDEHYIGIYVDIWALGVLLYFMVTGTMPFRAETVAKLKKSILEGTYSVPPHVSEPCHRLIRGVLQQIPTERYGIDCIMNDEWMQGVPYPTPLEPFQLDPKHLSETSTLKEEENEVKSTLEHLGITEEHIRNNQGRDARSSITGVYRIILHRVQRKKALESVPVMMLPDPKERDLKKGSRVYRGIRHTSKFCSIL
Sequence of Casein kinase I isoform gamma-1 (Homo sapiens) (Q9HCP0 whole entry, looked up, canonical isoform): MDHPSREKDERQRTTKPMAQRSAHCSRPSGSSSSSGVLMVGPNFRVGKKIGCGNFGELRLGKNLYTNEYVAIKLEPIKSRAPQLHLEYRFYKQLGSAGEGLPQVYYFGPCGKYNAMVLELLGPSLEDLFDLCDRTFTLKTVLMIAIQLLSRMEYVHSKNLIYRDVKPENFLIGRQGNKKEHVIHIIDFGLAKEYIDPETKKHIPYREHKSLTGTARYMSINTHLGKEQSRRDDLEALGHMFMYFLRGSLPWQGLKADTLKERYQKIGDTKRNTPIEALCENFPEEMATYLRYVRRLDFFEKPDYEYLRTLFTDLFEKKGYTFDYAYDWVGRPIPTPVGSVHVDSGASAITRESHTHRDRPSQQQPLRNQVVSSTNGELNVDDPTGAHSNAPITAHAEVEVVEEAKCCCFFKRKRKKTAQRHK
Sequence of MAP/microtubule affinity-regulating kinase 3 (Homo sapiens) (P27448 whole entry, looked up): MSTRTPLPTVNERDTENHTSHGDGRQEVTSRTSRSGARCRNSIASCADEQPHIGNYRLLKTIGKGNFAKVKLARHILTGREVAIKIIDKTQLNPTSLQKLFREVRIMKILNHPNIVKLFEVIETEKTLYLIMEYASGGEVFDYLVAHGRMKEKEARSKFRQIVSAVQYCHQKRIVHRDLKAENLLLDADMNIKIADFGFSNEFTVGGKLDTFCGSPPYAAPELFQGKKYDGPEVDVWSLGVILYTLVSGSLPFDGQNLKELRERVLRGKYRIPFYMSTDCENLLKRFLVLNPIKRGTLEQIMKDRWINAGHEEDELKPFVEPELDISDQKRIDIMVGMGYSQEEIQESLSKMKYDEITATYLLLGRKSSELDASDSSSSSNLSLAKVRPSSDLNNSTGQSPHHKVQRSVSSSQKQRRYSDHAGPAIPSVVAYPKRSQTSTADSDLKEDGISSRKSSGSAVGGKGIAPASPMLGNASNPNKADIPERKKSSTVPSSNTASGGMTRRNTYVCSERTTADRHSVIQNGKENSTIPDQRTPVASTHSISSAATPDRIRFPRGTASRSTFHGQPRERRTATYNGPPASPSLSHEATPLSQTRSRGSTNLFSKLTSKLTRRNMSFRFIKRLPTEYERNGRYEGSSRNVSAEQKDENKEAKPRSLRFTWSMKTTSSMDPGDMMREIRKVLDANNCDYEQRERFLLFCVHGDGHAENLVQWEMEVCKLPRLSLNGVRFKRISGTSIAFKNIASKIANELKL

Regarding `COCCNC(=O)c1ccc2c(c1)nc(-c1cnc(-c3ccc(Cl)cc3)[nH]1)n2CCOC`, the inhibition in assay [1] was 7.23%; in assay [2], 10.4%; in assay [3], 18.7%; in [4] it was -3.77%; in assay [5] it was 4.59%; in [6], 7.68%. For the same molecule, the inhibition was 11.4% in assay [7]; 3.72% in assay [8]; 0.5% in assay [9]; 2.45% in [10]; 17.2% in assay [11].

For `CC(C)(C)c1cc(NC(=O)Nc2ccc(Oc3ccncc3)cc2)no1`, the inhibition was 6.78% in assay [1]; -3.19% in assay [2]; 16.8% in assay [3]; -1.36% in [4]; 35.5% in [5]; 86.6% in assay [6]. For the same molecule, the inhibition in assay [7] turned out to be 7.39%; in assay [8] it was 4.76%; in assay [9], 11.7%; in assay [10], 18.6%; in assay [11], 98.3%.

For the molecule `CS(=O)(=O)c1cccc(Nc2nccc(-c3sc(N4CCOCC4)nc3-c3cccc(NS(=O)(=O)c4c(F)cccc4F)c3)n2)c1`, the inhibition in [1] was 35.1%; in assay [2] it was 85.2%; in assay [3], 49.8%; in assay [4] it was 4.8%; in [5], 7.78%; in [6], 82.1%. The inhibition stood at 6.04% in assay [7]; 5.74% in assay [8]; 15% in assay [9]; 20.5% in assay [10]; 94.1% in [11].

The values above are taken from ChEMBL document CHEMBL3627608, “Crystal structures of human RIP2 kinase catalytic domain complexed with ATP-competitive inhibitors: Foundations for understanding inhibitor selectivity” (Bioorg Med Chem, 2015).
